From ChEMBL document CHEMBL1151151, “Anti-AIDS agents, 2: Inhibitory effects of tannins on HIV reverse transcriptase and HIV replication in H9 lymphocyte cells” (J Nat Prod, 1990)
Activity calls are given as the source filed them. The calls are words filed in the database; no cut-off is given here.

Key:
[1] = test system: Human immunodeficiency virus 1; test: Antiviral activity against HIV1 3B infected in human H9 cells assessed as inhibition of viral replication after 3 days by p24 antigen capture assay; format: functional; set-up: concentration or dose not given beside the values
[2] = test system: Human immunodeficiency virus 1; test: Antiviral activity against HIV1 3B infected in human H9 cells assessed as inhibition of viral replication at 9.2 uM pretreated before viral infection by p24 antigen capture assay; format: functional, organism-based
[3] = test system: Human immunodeficiency virus 1; test: Antiviral activity against HIV1 3B infected in human H9 cells assessed as inhibition of viral replication at 18 uM treated after viral infection by p24 antigen capture assay; format: functional, organism-based
[4] = test system: Human immunodeficiency virus 1; test: Antiviral activity against HIV1 3B infected in human H9 cells assessed as inhibition of viral replication at 21 uM treated after viral infection by p24 antigen capture assay; format: functional, organism-based
[5] = test system: Human immunodeficiency virus 1; test: Antiviral activity against HIV1 3B infected in human H9 cells assessed as inhibition of viral replication at 9.2 uM treated during viral infection step by p24 antigen capture assay; format: functional, organism-based
[6] = test system: Human immunodeficiency virus 1; test: Antiviral activity against HIV1 3B infected in human H9 cells assessed as inhibition of viral replication at 10 uM pretreated before viral infection by p24 antigen capture assay; format: functional, organism-based
[7] = test system: Human immunodeficiency virus 1; test: Antiviral activity against HIV1 3B infected in human H9 cells assessed as inhibition of viral replication at 10 uM treated during viral infection step by p24 antigen capture assay; format: functional, organism-based
[8] = test system: Human immunodeficiency virus 1; test: Antiviral activity against HIV1 3B infected in human H9 cells assessed as inhibition of viral replication at 21 uM pretreated before viral infection by p24 antigen capture assay; format: functional, organism-based
[9] = test system: Human immunodeficiency virus 1; test: Antiviral activity against HIV1 3B infected in human H9 cells assessed as inhibition of viral replication at 21 uM treated during viral infection step by p24 antigen capture assay; format: functional, organism-based
[10] = test system: Human immunodeficiency virus 1; test: Antiviral activity against HIV1 3B infected in human H9 cells assessed as inhibition of viral replication at 18 uM pretreated before viral infection by p24 antigen capture assay; format: functional, organism-based
[11] = test system: Human immunodeficiency virus 1; test: Antiviral activity against HIV1 3B infected in human H9 cells assessed as inhibition of viral replication at 18 uM treated during viral infection step by p24 antigen capture assay; format: functional, organism-based
[12] = biological target: Human immunodeficiency virus type 1 reverse transcriptase (Human immunodeficiency virus 1) (UniProt Q72547); test: Inhibition of HIV reverse transcriptase
[13] = biological target: Human immunodeficiency virus type 1 reverse transcriptase (Human immunodeficiency virus 1) (UniProt Q72547); test: Inhibition of polymerase activity of HIV reverse transcriptase assessed as residual enzyme activity at 46 uM in presence of 75 ug/ml activated dNA and 5 uM dTTP
[14] = biological target: Human immunodeficiency virus type 1 reverse transcriptase (Human immunodeficiency virus 1) (UniProt Q72547); test: Inhibition of polymerase activity of HIV reverse transcriptase assessed as residual enzyme activity at 46 uM in presence of 75 ug/ml activated dNA and 25 uM dTTP
[15] = biological target: Human immunodeficiency virus type 1 reverse transcriptase (Human immunodeficiency virus 1) (UniProt Q72547); test: Inhibition of polymerase activity of HIV reverse transcriptase assessed as residual enzyme activity at 46 uM in presence of 375 ug/ml activated dNA and 5 uM dTTP
[16] = Growth inhibition of human H9 cells at 30 uM; format: cell-based; conditions: read-out: GI
[17] = biological target: Human immunodeficiency virus type 1 reverse transcriptase (Human immunodeficiency virus 1) (UniProt Q72547); test: Inhibition of polymerase activity of HIV reverse transcriptase assessed as residual enzyme activity at 64 uM in presence of 75 ug/ml activated dNA and 5 uM dTTP
[18] = biological target: Human immunodeficiency virus type 1 reverse transcriptase (Human immunodeficiency virus 1) (UniProt Q72547); test: Inhibition of polymerase activity of HIV reverse transcriptase assessed as residual enzyme activity at 64 uM in presence of 75 ug/ml activated dNA and 25 uM dTTP
[19] = biological target: Human immunodeficiency virus type 1 reverse transcriptase (Human immunodeficiency virus 1) (UniProt Q72547); test: Inhibition of polymerase activity of HIV reverse transcriptase assessed as residual enzyme activity at 64 uM in presence of 375 ug/ml activated dNA and 5 uM dTTP
[20] = biological target: Human immunodeficiency virus type 1 reverse transcriptase (Human immunodeficiency virus 1) (UniProt Q72547); test: Inhibition of HIV reverse transcriptase at 12.5 uM; conditions: TDE = time-dependent effect
[21] = test system: Human immunodeficiency virus 1; test: Antiviral activity against HIV1 3B infected in human H9 cells assessed as inhibition of viral replication at 13 uM treated during viral infection step by p24 antigen capture assay; format: functional, organism-based
[22] = test system: Human immunodeficiency virus 1; test: Antiviral activity against HIV1 3B infected in human H9 cells assessed as inhibition of viral replication at 13 uM pretreated before viral infection by p24 antigen capture assay; format: functional, organism-based

Row | ID50 [12] [µM] | Structure (SMILES) | inhibition (INH) [1] [%] | Activity [3] | Activity [4] | other results
1 | – | O=C1O[C@@H]2[C@@H](OC(=O)c3cc(O)c(O)c(O)c3-c3c1cc(O)c(O)c3O)[C@H](O)O[C@@H]1COC(=O)c3cc(O)c(O)c(O)c3-c3c(O)c(O)c4oc(=O)c5c(c(O)c(O)c6oc(=O)c3c4c65)-c3c(cc(O)c(O)c3O)C(=O)O[C@@H]21 [PUNICALAGIN] | >50 | Active | Active | Activity [2]: Active; Activity [5]: Active
2 | – | O=C(O)C[C@H]1C(=O)O[C@H]2[C@H](OC(=O)c3cc(O)c(O)c(O)c3)[C@@H](OC(=O)c3cc(O)c(O)c4c3[C@H]1[C@H](O)C(=O)O4)[C@H](OC(=O)c1cc(O)c(O)c(O)c1)O[C@@H]2COC(=O)c1cc(O)c(O)c(O)c1 [CHEBULINIC ACID] | >50 | Active | Active | Activity [6]: Active; Activity [7]: Active
3 | – | O=C(O)C[C@@H]1C(=O)O[C@H]2[C@@H]3OC(=O)c4cc(O)c(O)c(O)c4-c4c(cc(O)c(O)c4O)C(=O)OC[C@H]2O[C@@H](OC(=O)c2cc(O)c(O)c(O)c2)[C@@H]3OC(=O)c2cc(O)c(O)c3c2[C@H]1[C@H](O)C(=O)O3 [CHEBULAGIC ACID] | >50 | Active | Active | Activity [6]: inactive; Activity [7]: Active
4 | – | O=C(O)C1=C[C@@H](OC(=O)c2cc(O)c(O)c(O)c2)[C@@H](OC(=O)c2cc(O)c(O)c(O)c2)[C@H](OC(=O)c2cc(O)c(O)c(O)c2)C1 | >50 | – | – | –
5 | – | O=C(O)C1=C[C@@H](OC(=O)c2cc(O)c(O)c(O)c2)[C@@H](O)[C@H](OC(=O)c2cc(O)c(O)c(O)c2)C1 | >50 | Active | Active | Activity [8]: Active; Activity [9]: Active
6 | – | O=C(O[C@@H]1[C@H](O)C[C@@](OC(=O)c2cc(O)c(O)c(O)c2)(C(=O)O)C[C@H]1OC(=O)c1cc(O)c(O)c(O)c1)c1cc(O)c(O)c(O)c1 | >50 | Active | Active | Activity [10]: Active; Activity [11]: Active
7 | 5 | O=C1O[C@H]([C@@H]2OC(=O)c3cc(O)c(O)c(O)c3-c3c(O)c(O)c4oc(=O)c5c(c(O)c(O)c6oc(=O)c3c4c65)-c3c(cc(O)c(O)c3O)C(=O)OC[C@H]2O)[C@@H]2OC(=O)c3c(c(O)c(O)c(O)c3[C@H]2O)-c2c1cc(O)c(O)c2O [PUNICACORTEIN C] | >50 | Active | Active | Activity [13]: 21.5%; Activity [14]: 37.6%; Activity [15]: 46.2%; Activity [2]: Active; Activity [5]: Active
8 | 8 | O=C1OC[C@H]2O[C@@H](O)[C@H](O)[C@@H](O)[C@@H]2OC(=O)c2cc(O)c(O)c(O)c2-c2c(O)c(O)c3oc(=O)c4c(c(O)c(O)c5oc(=O)c2c3c54)-c2c1cc(O)c(O)c2O [PUNICALIN] | >50 | Active | Active | inhibition at 30 µM [16]: 15%; Activity [12]: Dose-dependent effect; Activity [17]: 11.4%; Activity [18]: 34.4%; Activity [19]: 45.3%; Activity [20]: tde; Activity [21]: Active; Activity [22]: inactive
9 | 20 | O=C(O[C@@H]1O[C@@H]2COC(=O)c3cc(O)c(O)c(O)c3-c3c(cc(O)c(O)c3O)C(=O)O[C@H]2[C@@H]2OC(=O)c3cc(O)c(O)c(O)c3-c3c(cc(O)c(O)c3O)C(=O)O[C@@H]12)c1cc(O)c(O)c(Oc2c(O)c(O)c(O)c3c2C(=O)O[C@H]2[C@@H]4OC(=O)c5cc(O)c(O)c(O)c5-c5c(cc(O)c(O)c5O)C(=O)O[C@H]4[C@@H](OC(=O)c4cc(O)c(O)c(Oc5c(O)c(O)c(O)c6c5C(=O)O[C@H]5[C@@H]7OC(=O)c8cc(O)c(O)c(O)c8-c8c(cc(O)c(O)c8O)C(=O)O[C@H]7[C@H](OC(=O)c7cc(O)c(O)c(Oc8c(O)c(O)c(O)c9c8C(=O)O[C@H]8[C@@H]%10OC(=O)c%11cc(O)c(O)c(O)c%11-c%11c(cc(O)c(O)c%11O)C(=O)O[C@H]%10[C@@H](OC(=O)c%10cc(O)c(O)c(O)c%10)O[C@@H]8COC(=O)c8cc(O)c(O)c(O)c8-9)c7)O[C@@H]5COC(=O)c5cc(O)c(O)c(O)c5-6)c4)O[C@@H]2COC(=O)c2cc(O)c(O)c(O)c2-3)c1 | – | – | – | –
